Active and inactive are the calls of the source. The rule behind the calls is not given here.

Experiment [1] has as its target T1, 3',5'-cyclic-AMP phosphodiesterase 4D (Homo sapiens, UniProt Q08499). Description: Inhibition of N-terminal 6His-tagged human recombinant PDE4D2 expressed in Escherichia coli BL21 (DE3) at 1 uM after 15 mins using [3H]cAMP by scintillation proximity assay. For orientation: Scintillation proximity formats need no separation of bound from free tracer.
Experiment [2] relates to UMR106. Description: Inhibition of PDE4D2 in rat UMR106 cells coexpressing pCRE-luc assessed as activation of cREB protein at 10 uM after 4 hrs by measuring luciferase activity by luminescence assay. In kind it is cell-based.
Experiment [3] has as its system UMR106. Description: Inhibition of PDE4D2 in rat UMR106 cell lysates at 1 uM after 15 mins using [3H]cAMP by scintillation proximity assay. In kind it is cell-free.
The target in experiment [4] is T1, 3',5'-cyclic-AMP phosphodiesterase 4D. Description: Inhibition of human recombinant PDE4D2 overexpressed in Escherichia coli after 15 mins using [3H]cAMP by scintillation proximity assay.
Experiment [5] in a line: Inhibition of rat PDE4D2 in UMR106 cell lysates after 15 mins using [3H]cAMP by scintillation proximity assay. Format: cell-free.
Experiment [6] in a line: Inhibition of PDE in rat UMR106 cells co-expressing CRE-luc assessed as PTH-induced cAMP accumulation by luciferase reporter gene assay. Format: cell-based. (Changes in cAMP serve as a functional read-out for many G protein-coupled receptors.)
For experiment [7], the system named is UMR106. Nature of the experiment: Inhibition of PDE4D2 in rat PTHrP-stimulated UMR106 cells coexpressing pCRE-luc assessed as activation of cREB protein after 4 hrs by measuring luciferase activity by luminescence assay. In kind it is cell-based.
Experiment [8] has as its system UMR106. Description: Inhibition of PDE4D2 in rat UMR106 cells coexpressing pCRE-luc assessed as activation of cREB protein after 4 hrs by measuring luciferase activity by luminescence assay. In kind it is cell-based.

T1 sequence (Q08499 whole entry): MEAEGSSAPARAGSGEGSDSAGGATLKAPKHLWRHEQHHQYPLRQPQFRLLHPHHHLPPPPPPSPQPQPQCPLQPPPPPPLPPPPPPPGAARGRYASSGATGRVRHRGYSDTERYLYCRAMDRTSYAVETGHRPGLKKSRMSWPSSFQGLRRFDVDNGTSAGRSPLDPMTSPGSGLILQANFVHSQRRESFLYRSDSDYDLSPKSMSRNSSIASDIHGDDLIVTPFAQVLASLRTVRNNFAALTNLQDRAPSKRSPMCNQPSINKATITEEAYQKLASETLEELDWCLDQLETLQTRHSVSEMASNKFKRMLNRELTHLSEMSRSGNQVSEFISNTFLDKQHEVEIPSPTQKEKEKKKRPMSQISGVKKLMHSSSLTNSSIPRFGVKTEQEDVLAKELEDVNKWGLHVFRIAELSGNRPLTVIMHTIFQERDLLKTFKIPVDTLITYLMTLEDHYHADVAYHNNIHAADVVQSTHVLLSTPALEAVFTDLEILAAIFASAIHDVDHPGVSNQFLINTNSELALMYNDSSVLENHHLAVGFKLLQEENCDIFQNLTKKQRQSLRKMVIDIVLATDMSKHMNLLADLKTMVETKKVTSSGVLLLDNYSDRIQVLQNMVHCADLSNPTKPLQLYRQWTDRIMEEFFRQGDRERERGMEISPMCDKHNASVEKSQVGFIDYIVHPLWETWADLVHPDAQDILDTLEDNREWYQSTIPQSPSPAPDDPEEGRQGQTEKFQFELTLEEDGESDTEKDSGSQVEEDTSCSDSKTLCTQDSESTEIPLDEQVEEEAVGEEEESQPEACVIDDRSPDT

`CCOC(=O)N1CCc2c(sc(NC(=O)Cc3ccccc3)c2C(=O)OC2CCCCC2)C1`: the inhibition (in general, the relative decrease from the control value, in per cent) in experiment [1] came out at 61%.
With `CCOC(=O)c1c(NC(=O)c2cccc(S(=O)(=O)N3CCOCC3)c2)sc(C)c1C`, the inhibition result in experiment [2] was “Active”.
`CCOC(=O)c1c(NC(=O)Cc2ccccc2)sc2c1CCN(C(=O)OC(C)(C)C)C2`: in experiment [1], the inhibition is 38%.
In the case of `CCOC(=O)N1CCc2c(sc(NC(=O)Cc3ccccc3)c2C(N)=O)C1`, the inhibition is 18% in experiment [3] and -1% in experiment [1].
Take `CCOC(=O)c1c(NC(=O)Cc2ccccc2)sc2c1CCNC2`: in experiment [3], the inhibition came out at 25%.
Regarding `CCOC(=O)c1c(NC(=O)Cc2ccccc2)sc2c1CCC2`, the inhibition result in experiment [2] was “Active”.
Turning to `CCOC(=O)c1c(NC(=O)Cc2ccccc2)sc2c1CCN(C(=O)OCC)C2`, in experiment [2], the inhibition entry was “Active”. In addition, the inhibition was 85% in experiment [3] and 86% in experiment [1]. The IC50 (commonly the concentration at which inhibition is half-maximal) in experiment [4] worked out at 100 nM.
Take `CCOC(=O)c1c(NC(=O)Cc2ccccn2)sc2c1CCN(C(=O)OCC)C2`: the inhibition in experiment [3] stood at 73%; in experiment [1], 72%. Moreover, 80 nM corresponded to half-maximal inhibition in experiment [5] (IC50).
On to `CCOC(=O)c1c(NC(=O)Cc2ccccc2)sc2c1CCCC2`, for which, in experiment [2], the inhibition result is “Active”. Moreover, the inhibition in experiment [1] was determined as 68%. Moreover, the IC50 in experiment [4] is 1500 nM.
As to `COc1ccc(C2CNC(=O)C2)cc1OC1CCCC1` (stereo unspecified) [ROLIPRAM], the IC50 in experiment [6] is 600 nM.
In the case of `CCOC(=O)c1c(NC(=O)Cc2ccccc2OC)sc2c1CCN(C(=O)OCC)C2`, the inhibition in experiment [3] amounted to 37%.
The same measure, in the same setting: as for `N#Cc1c(NC(=O)Cc2ccccc2)sc2c1CCCC2`, the figure is 24%; as for `NC(=O)c1c(NC(=O)Cc2ccccc2)sc2c1CCCC2`, 15%.
Same read-out and setting: under `CCOC(=O)c1c(NC(=O)CCc2ccccc2)sc2c1CCN(C(=O)OCC)C2` stands 22%; under `CCOC(=O)c1c(NC(=O)Cc2ccc(S(C)(=O)=O)cc2)sc2c1CCN(C(=O)OCC)C2`, -4%.
`CCNC(=O)N1CCc2c(sc(NC(=O)Cc3cccs3)c2C(=O)OC2CCCC2)C1`: the inhibition in experiment [1] was found to be 88%.
Regarding `CCOC(=O)c1c(NC(=O)Cc2ccc(OC)cc2)sc2c1CCN(C(=O)OCC)C2`, the inhibition in experiment [3] was 26%; in experiment [1] it was 23%.
For the compound `CCOC(=O)c1c(NC(=O)Cc2ccccc2)sc2c1CCN(C(C)=O)C2`, the inhibition in experiment [3] stood at 50%. This compound also displayed an IC50 in experiment [5] of 1000 nM.
`CCOC(=O)c1c(NC(=O)Cc2cccs2)sc2c1CCN(C(=O)OCC)C2`: the inhibition in experiment [3] came out at 70%; in experiment [1], 98%. This compound showed an IC50 in experiment [5] of 182 nM.
As to `CCOC(=O)c1c(NC(=O)Cc2cccc(OC)c2)sc2c1CCN(C(=O)OCC)C2`, in experiment [3], the inhibition was determined as 9%.
In the case of `CCNC(=O)N1CCc2c(sc(NC(=O)Cc3ccccc3)c2C(=O)OCC)C1`, in experiment [1], the inhibition was found to be 98%.
Consider `CCOC(=O)N1CCc2c(sc(NC(=O)Cc3cccs3)c2C(=O)OC2CCCC2)C1`, for which the inhibition entry in experiment [7] was “Dose-dependent effect”; in experiment [1], 95%; in experiment [8], “Dose-dependent effect”.
Regarding `CCOC(=O)c1c(NC(=O)Cc2ccccc2)sc2c1CC(C)(C)OC2`, the inhibition entry in experiment [2] is “Active”.
With `CCOC(=O)c1c(NC(=O)c2ccccc2)sc2c1CCN(C(=O)OCC)C2`, the inhibition in experiment [3] was determined as 14%.
In the case of `CCOC(=O)c1c(NC(=O)Cc2cccs2)sc2c1CCCC2`, the inhibition entry in experiment [2] is “Active”.
With `CCOC(=O)c1c(NCc2ccccc2)sc2c1CCN(C(=O)OCC)C2`, the inhibition in experiment [3] came out at 33%.
Take `O=C(Cc1ccccn1)Nc1sc2c(c1C(=O)OC1CCCC1)CCN(C(=O)NCc1ccccc1)C2`: the inhibition in experiment [1] stood at 65%.
